Results reported in ChEMBL document CHEMBL5113392, “Novel hybrid pyrrolidinedione-thiazolidinones as potential anticancer agents: Synthesis and biological evaluation” (Eur J Med Chem, 2022).
The source made the active and inactive calls. The calls are words filed in the database; no cut-off is given here.

Assays:
Lymphocyte [1] = test: Induction of DNA damage in mitogen activated human peripheral blood lymphocytes assessed as tail DNA at 3.5 uM incubated for 24 hrs by alkaline Comet assay; assay type: toxicity, cell-based
NCI-H522 = test: Anticancer activity against human NCI-H522 cells assessed as inhibition of cell growth at 10 uM incubated for 48 hrs by SRB assay; assay type: functional; conditions: NCI-H522, 48 h, values are per cent of control
[2] = Selectivity index, ratio of GI50 for human HaCaT cells to GI50 for human MDA-MB-231 cells; assay type: toxicity; conditions: HaCaT cells versus MDA-MB-231 cells, read-out: RatioGI50
Jurkat [3] = test: Induction of DNA damage in human Jurkat cells assessed as tail DNA at 3.5 uM incubated for 24 hrs by alkaline Comet assay; assay type: functional
Jurkat [4] = test: Induction of apoptosis in human Jurkat cells assessed as increase in Bax level at 3.5 uM for 24 hrs by Western blot analysis; assay type: functional, cell-based
Lymphocyte [5] = test: Induction of DNA damage in mitogen activated human peripheral blood lymphocytes assessed as olive tail moment at 3.5 uM incubated for 24 hrs by alkaline Comet assay; assay type: toxicity, cell-based
Jurkat [6] = test: Induction of apoptosis in human Jurkat cells assessed as increase in cleaved capase-3 level at 3.5 uM for 24 hrs by Western blot analysis; assay type: functional, cell-based
CCRF-CEM = test: Anticancer activity against human CCRF-CEM cells assessed as total growth inhibition incubated for 48 hrs by SRB assay; assay type: functional
Jurkat [7] = test: Induction of apoptosis in human Jurkat cells assessed as decrease in Bcl-2 level at 3.5 uM for 24 hrs by Western blot analysis; assay type: functional, cell-based
OVCAR-3 = test: Anticancer activity against human OVCAR-3 cells assessed as inhibition of cell growth at 10 uM incubated for 48 hrs by SRB assay; assay type: functional; conditions: OVCAR-3, 48 h, values are per cent of control
Jurkat [8] = test: Induction of DNA damage in human Jurkat cells assessed as olive tail moment at 3.5 uM incubated for 24 hrs by alkaline Comet assay; assay type: functional
SK-MEL-5 [9] = test: Anticancer activity against human SK-MEL-5 cells assessed as growth inhibition incubated for 48 hrs by SRB assay; assay type: functional
Jurkat [10] = test: Induction of DNA damage in human Jurkat cells assessed as proapoptotic inter-nucleosomal fragmentation at 3.5 uM for 24 hrs by Agarose gel electrophoresis analysis; assay type: functional, cell-based
KM12 [11] = test: Anticancer activity against human KM12 cells assessed as total growth inhibition incubated for 48 hrs by SRB assay; assay type: functional
Salmon testes DNA [12] = test: Binding affinity to double stranded salmon sperm DNA assessed as increase in DNA oxidation level by measuring net change in absorbance at 10 uM incubated for 1 hr by UV based spectroscopic method; assay type: nucleic-acid assay; conditions: Salmo salar
HCT-116 [13] = test: Induction of DNA damage in human HCT-116 cell lysate assessed as olive tail moment at 1 uM incubated for 2 hrs in dark by Comet assay; assay type: functional
Jurkat [14] = test: Induction of apoptosis in human Jurkat cells assessed as increase in cleaved capase-3 level at 1.5 uM for 24 hrs by Western blot analysis; assay type: functional, cell-based
CAKI-1 = test: Anticancer activity against human CAKI-1 cells assessed as inhibition of cell growth at 10 uM incubated for 48 hrs by SRB assay; assay type: functional; conditions: CAKI-1, 48 h, values are per cent of control
A549 = test: Anticancer activity against human A549 cells assessed as growth inhibition incubated for 48 hrs by SRB assay; assay type: functional
Salmon testes DNA [15] = test: Binding affinity to single stranded salmon sperm DNA assessed as increase in DNA oxidation level by measuring net change in absorbance at 10 uM incubated for 1 hr by UV based spectroscopic method; assay type: nucleic-acid assay; conditions: Salmo salar
Jurkat [16] = test: Induction of apoptosis in human Jurkat cells assessed as decrease in Bcl-2 level at 1.5 uM for 24 hrs by Western blot analysis; assay type: functional, cell-based
Jurkat [17] = test: Induction of apoptosis in human Jurkat cells assessed as increase in Bax level at 1.5 uM for 24 hrs by Western blot analysis; assay type: functional, cell-based
ACHN = test: Anticancer activity against human ACHN cells assessed as lethality incubated for 48 hrs by SRB assay; assay type: functional; conditions: read-out: LC50 (the source's name)
Lymphocyte [18] = test: Induction of DNA damage in mitogen activated human peripheral blood lymphocytes assessed as olive tail moment at 1.5 uM incubated for 24 hrs by alkaline Comet assay; assay type: toxicity, cell-based
SK-MEL-5 [19] = test: Anticancer activity against human SK-MEL-5 cells assessed as total growth inhibition incubated for 48 hrs by SRB assay; assay type: functional
KM12 [20] = test: Anticancer activity against human KM12 cells assessed as inhibition of cell growth at 10 uM incubated for 48 hrs by SRB assay; assay type: functional; conditions: KM12, 48 h, values are per cent of control
Jurkat [21] = test: Induction of DNA damage in human Jurkat cells assessed as proapoptotic inter-nucleosomal fragmentation at 1.5 uM for 24 hrs by Agarose gel electrophoresis analysis; assay type: functional, cell-based
OVCAR-5 = test: Anticancer activity against human OVCAR-5 cells assessed as lethality incubated for 48 hrs by SRB assay; assay type: functional; conditions: read-out: LC50 (the source's name)
Jurkat [22] = test: Induction of DNA damage in human Jurkat cells assessed as olive tail moment at 1.5 uM incubated for 24 hrs by alkaline Comet assay; assay type: functional
Jurkat [23] = test: Induction of DNA damage in human Jurkat cells assessed as tail DNA at 1.5 uM incubated for 24 hrs by alkaline Comet assay; assay type: functional
SK-MEL-5 [24] = test: Anticancer activity against human SK-MEL-5 cells assessed as lethality incubated for 48 hrs by SRB assay; assay type: functional; conditions: read-out: LC50 (the source's name)
HCT-116 [25] = test: Induction of DNA damage in human HCT-116 cells assessed as olive tail moment at 1 uM incubated for 2 hrs by alkaline Comet assay; assay type: functional
DU-145 = test: Anticancer activity against human DU-145 cells assessed as total growth inhibition incubated for 48 hrs by SRB assay; assay type: functional
Lymphocyte [26] = test: Induction of DNA damage in mitogen activated human peripheral blood lymphocytes assessed as tail DNA at 1.5 uM incubated for 24 hrs by alkaline Comet assay; assay type: toxicity, cell-based
HCT-116 [27] = test: Induction of DNA damage in human HCT-116 cells assessed as tail DNA at 1 uM incubated for 2 hrs by alkaline Comet assay; assay type: functional
786-0 = test: Anticancer activity against human 786-0 cells assessed as lethality incubated for 48 hrs by SRB assay; assay type: functional; conditions: read-out: LC50 (the source's name)
HCT-116 [28] = test: Induction of DNA damage in human HCT-116 […] assessed as tail DNA at 1 uM incubated for 2 hrs in dark by Comet assay; assay type: functional

Compound O=C1CC(N2C(=O)/C(=C/C(Cl)=C/c3ccc([N+](=O)[O-])cc3)SC2=S)C(=O)N1c1ccc(Cl)cc1 (stereo not given) has an Activity (Lymphocyte [1]) of 4.25%, a growth, % of control at 10 µM (NCI-H522) of -26.4% and a selectivity ratio [2] of 15.5. For the same compound, the Activity (Jurkat [3]) was 48.35%, the Activity (Jurkat [4]) was “Active” and the Activity (Lymphocyte [5]) was 0.86%. For the same compound, the Activity (Jurkat [6]) was “Active”, the TGI (CCRF-CEM) was 12.4 µM and the Activity (Jurkat [7]) was “Active”. The growth, % of control at 10 µM (OVCAR-3) was -35.4%, the Activity (Jurkat [8]) was 18.1% and the GI50 (SK-MEL-5 [9]) was 1950 nM. For the same compound, the Activity (Jurkat [10]) was “Active”.
With O=C1CC(N2C(=O)/C(=C/C(Cl)=C/c3ccc([N+](=O)[O-])cc3)SC2=S)C(=O)N1c1ccc(O)cc1 (stereo not given) the TGI (KM12 [11]) was 4.64 µM, the Activity (Salmon testes DNA [12]) was “Active” and the Activity (HCT-116 [13]) was 3.05%. For the same compound, the selectivity ratio [2] was 11.9, the Activity (Jurkat [14]) was “Active” and the growth, % of control at 10 µM (CAKI-1) was -71.4%. For the same compound, the GI50 (A549) was 3.11 µM, the Activity (Salmon testes DNA [15]) was “Active” and the Activity (Jurkat [16]) was “Active”. For the same compound, the Activity (Jurkat [17]) was “Active”, the CC50 (ACHN) was 5.59 µM and the Activity (Lymphocyte [18]) was 0.28%. The TGI (SK-MEL-5 [19]) was 3.66 µM, the growth, % of control at 10 µM (KM12 [20]) was -72.4% and the Activity (Jurkat [21]) was “Active”. The CC50 (OVCAR-5) was 7.16 µM, the Activity (Jurkat [22]) was 8.63% and the Activity (Jurkat [23]) was 53.4%. For the same compound, the TGI (CCRF-CEM) was 3.87 µM, the CC50 (SK-MEL-5 [24]) was 6.97 µM and the Activity (HCT-116 [25]) was 9.84%. The TGI (DU-145) was 3.37 µM, the GI50 (SK-MEL-5 [9]) was 1920 nM and the Activity (Lymphocyte [26]) was 2.92%. It also gave an Activity (HCT-116 [27]) of 26.5%, a CC50 (786-0) of 25.5 µM and an Activity (HCT-116 [28]) of 13.1%.
